Laboratory results from patent US7183099B2, “Inhibitors of autoinducer transporters” (Princeton University, priority 2001, dated 2007).
“Also recorded” adds a separate entry of the source. Like-named read-outs stand apart in the source and are kept apart here.

How the values were obtained:
[1] = tested on: V. harveyi reporter strain BB170 (Sensor 1−, Sensor 2+); type: cell-based, Vibrio harveyi
Description: Cell-free culture fluids from E. coli, S. typhimurium and V. harveyi strains were tested for the presence of signaling substances that could induce luminescence in the V. harveyi reporter strain BB170 or BB886. […] Positive control wells contained 10 μl of cell-free culture fluid from strain V. harveyi BB152 (Autoinducer-1^−, Autoinducer-2^+) or V. harveyi BB120 (Autoinducer-1^+, Autoinducer-2^+). Negative control wells contained 10 μl of sterile growth medium. The microtiter dishes were shaken in a rotary shaker at 175 rpm at 30° C.
The cell density was measured by diluting the same aliquots of cells used for measuring luminescence, spreading the dilutions onto solid LM medium, incubating the plates overnight at 30° C., and counting the resulting colonies the following day. […] Cell-free culture supernatants from V. harveyi or S. typhimurium strains were added to a final concentration of 10% (v/v) at the time of the first measurement. In control experiments, 10% (v/v) of AB medium, LB medium or LB medium containing 0.5% glucose was added instead of cell-free culture fluids.

[2] = tested on: V. harveyi luxN, luxS double mutant reporter strain; test: Luminescence response of V. harveyi luxN, luxS double mutant reporter; type: cell-based, Vibrio harveyi; conditions: culture fluids of MM30 (AI-1) and BB152 (AI-2) as sources
Description: Verification that the luxN, luxS Double Mutant Responds to AI-2. […] This was verified in a luminescence assay for response to V. harveyi AI-1 and AI-2. V. harveyi strain MM30 (luxS::Tn5) that is phenotypically AI-1^+, AI-2^−, and V. harveyi strain BB152 (luxM::Tn5) that is phenotypically AI-1^−, AI-2^+ were used as the sources of AI-1 and AI-2 respectively. The AI-1 and AI-2 present in culture fluids of these strains was tested for stimulation of light production of the V. harveyi luxN, luxS double mutant reporter strain. In this assay, autoinducer preparations from MM30, BB152 or sterile medium controls were added to the wells of microtiter plates, followed by the addition of the V. harveyi reporter strain. The resulting light production was monitored using a liquid scintillation counter in the chemiluminescence mode. Maximal stimulation of light production in the V. harveyi luxN, luxS reporter strain was compared to that produced by the Sensor 1^+, Sensor 2^− V. harveyi strain BB886 and the Sensor 1^−, Sensor 2^+V. harveyi strain BB170. These two V. harveyi strains are routinely used in this assay as reporters of AI-1 and AI-2 activity respectively.

[3] = tested on: lsr operon (lsr-lacZ fusions); test: β-galactosidase assay of lsr::MudJ (lacZ) fusions; type: cell-based, S. typhimurium
Description: Various S. typhimurium lsr::MudJ fusion strains were grown to late exponential phase in LB medium supplemented with AI-2 prepared by our in vitro method at an approximate concentration of 70 μM. This is roughly twice the concentration of AT-2 that we estimate to be present in S. typhimurium cell-free supernatants (not shown). As a control, we performed the same experiment with material from in vitro reactions carried out with SAH and Pfs enzyme in the absence of the LuxS enzyme. This reaction produces adenine and SRH. Homocysteine was added to this control mixture following the reaction to compensate for the homocysteine that would be produced by LuxS. Therefore, the only component absent from the control reaction was AI-2.
Cultures of S. typhimurium that had been grown overnight were diluted 1:100 into fresh LB and grown for 4 hours. For strains containing plasmids, cultures were diluted in LB supplemented with Amp. When necessary, AI-2 was synthesized in vitro and added to the growth media at the time of inoculation (Schauder et al., 2001). Cells from 1 ml of these cultures were harvested and resuspended in 1 ml Z buffer. P-galactosidase assays were performed using a microtitre plate assay, as described (Slauch and Silhavy, 1991). β-galactosidase units were calculated as (0.1*mOD420/min)/[OD600 of cells*Volume (ml)]. All assays were performed in triplicate.

rck::MudJ fusion (SdiA) = test: SdiA regulated rck::MudJ fusion assay; type: cell-based; conditions: AI-2 from E. coli or S. typhimurium; sdiA+ and sdiA− backgrounds
Description: For ftsQ regulation in E. coli, the plasmids pMS207 and pMS209 were transformed into E. coli strain MC4100 (Silhavy et al., 1984, supra), and the transformants were grown overnight in LB containing 100 mg/L ampicillin at 30° C. with aeration. For rck regulation, S. typhimurium strains BA1105 (rck::MudJ) and BA1305 (rck::MudJ sdiA) were grown overnight in LB containing 100 mg/L kanamycin at 30° C. with aeration. The overnight cultures were diluted 20-fold into fresh medium and grown for an additional 4.5 h. At this time, each culture was divided into five identical aliquots and 10% (v/v) of one of the following was added to each aliquot: LB, 0.4 M NaCl, […] osmotic shock fluids from S. typhimurium LT2, E. coli O157 or E. coli strain DH5 (negative control). The osmotic shock fluids were prepared as described above, following pregrowth of the S. typhimurium LT2 and E. coli in LB containing 0.5% glucose for 6h. The cell suspensions were incubated at 30° C. for 2 h, after which standard -galactosidase reactions were performed on the samples (Miller, A Short Course in Bacterial Genetics, Cold Spring Harbor Laboratory Press, 1992).

[4] = Stability characterisation of the signaling activity; type: physicochemical
[5] = S. typhimurium cell-free spent culture fluids; cited from earlier work

In the case of `CC(=O)C(=O)C(O)CO` (stereo not drawn) [AI-2, 4,5-dihydroxy-2,3-pentanedione], the signaling activity degraded ([1]; 0.4 M NaCl shock fluid activity incubated 2 h with S. typhimurium cells pre-incubated in 0.1 M NaCl) is reported as “greater than 98%”, the “input AI-2 activity (induction of V. harveyi bioluminescence reporter)” value ([1]; in vitro prepared AI-2 added to S. typhimurium culture, chilled immediately) is reported as 1000 fold and the “stimulation in light production in the bioassay” value ([1]; in vitro reaction: dialyzed LuxS− cell extract + SAM + LuxS protein, MW<5000 filtrate) is reported as “over 500 fold”. For the same compound, the “stimulation of light production by exogenous autoinducer” value [2] was “stimulated to produce light”, the “expression of the lsr-lacZ fusions” value ([3]; strains lacking luxS, 70 μM exogenous AI-2) was “induces the expression of the lsr-lacZ fusions to levels above that when wild type luxS is present” and the “expression of the lsr-lacZ fusions” value ([3]; wild type luxS strains, exogenous AI-2 added) was “additional stimulation of the expression of the lsr-lacZ fusions”. The “change in β-galactosidase production of rck::MudJ” value (rck::MudJ fusion (SdiA)) was “No change”, the “heat resistance of the activity” value [4] was “heat resistant to about 80 but not 100 °C” and the “stability of the activity to acid and base” value (from here on “stability of the activity”) [4] was “acid stable and base labile”. The “time the activity is stable in cell-free fluids” value ([4]; cell-free culture supernatants and 0.4 M NaCl osmotic shock fluids, 30 °C) was “at least 24 h”, the “heat resistance of the activity” value ([4]; listed as signaling activity) was “heat resistant to 80 but not 100 °C” and the “stability of the activity” value ([4]; listed as signaling activity) was “acid stabile and base labile”. For the same compound, the “heat resistance of the activity” value ([4]; listed as signaling compound) was “heat resistant to 80 °C but not 100 °C”, the “stability of the activity” value ([4]; listed as signaling compound) was “acid stable and base labile” and the “stability of AI-2 in cell-free culture fluids” value [5] was “stable for long periods of time; also recorded: remains active for long periods of time”.
